Reference: patent US8217060B2, “Benzimidazole derivatives useful as TRP M8 receptor modulators” (Janssen Pharmaceutica, NV, priority 2009, dated 2012)

Target: T1, canine TRPM8 (Canis lupus familiaris, UniProt Q1A7N1)
T1 construct: expressed in transfected cells
Experiment: In Vitro Canine TRPM8 Functional Assay (icilin-induced intracellular Ca2+ fluorescence, FLIPR/FDSS)
Type: cell-based
Details: HEK293 cells stably expressing canine TRPM8; for inhibition at 0.2 µM: 0.2 μM test compound, icilin challenge; for IC50: icilin challenge (~80% maximal response), eight-point dose-response
Experimental: The functional activity of representative compounds of the formula (I) of the present invention were measured by measuring changes in intracellular calcium concentration using a Ca^2+-sensitive fluorescent dye. The changes in fluorescent signal were monitored by a fluorescence plate reader, either a FLIPR™ (Molecular Devices) or FDSS (Hamamatsu).
HEK293 cells stably expressing canine TRPM8 were routinely grown as monolayers in Dulbecco's minimum essential medium supplemented with 10% FBS, 2 mM L-glutamine, 100 units/mL penicillin, 100 ug/mL streptomycin and 400 μg/mL G418. Cells were maintained in 5% CO2 at 37° C. At 24 hrs prior to assay, cells were seeded in black wall, clear-base poly-D-lysine coated 384-well plates (BD Biosciences, NJ, USA) at a density of 5,000 cells per well in culture medium and grown overnight in 5% CO2 at 37° C. On assay day, growth media was removed and cells were loaded with Calcium 3 Dye (Molecular Devices) for 35 min at 37° C., under 5% CO2 and then for 25 min at room temperature and atmosphere. Subsequently, cells were tested for agonist-induced increases in intracellular Ca^2+ levels using FLIPR™ or FDSS. Cells were challenged with compounds of the formula (I) (at varying concentrations) and intracellular Ca^2+ was measured for 5 min prior to the addition of icilin to all wells to achieve a final concentration that produces approximately an 80% maximal response.
Basal FI was subtracted prior to normalizing data to percent of maximal response. Curves were generated using the average of quadruplicate wells for each data point, were analyzed using nonlinear regression of either sigmoidal dose response or sigmoidal dose response (variable slope). Finally, the EC50 and IC50 values were calculated with the best-fit dose curve determined by GraphPad Prism

T1 sequence (Q1A7N1 1-1104): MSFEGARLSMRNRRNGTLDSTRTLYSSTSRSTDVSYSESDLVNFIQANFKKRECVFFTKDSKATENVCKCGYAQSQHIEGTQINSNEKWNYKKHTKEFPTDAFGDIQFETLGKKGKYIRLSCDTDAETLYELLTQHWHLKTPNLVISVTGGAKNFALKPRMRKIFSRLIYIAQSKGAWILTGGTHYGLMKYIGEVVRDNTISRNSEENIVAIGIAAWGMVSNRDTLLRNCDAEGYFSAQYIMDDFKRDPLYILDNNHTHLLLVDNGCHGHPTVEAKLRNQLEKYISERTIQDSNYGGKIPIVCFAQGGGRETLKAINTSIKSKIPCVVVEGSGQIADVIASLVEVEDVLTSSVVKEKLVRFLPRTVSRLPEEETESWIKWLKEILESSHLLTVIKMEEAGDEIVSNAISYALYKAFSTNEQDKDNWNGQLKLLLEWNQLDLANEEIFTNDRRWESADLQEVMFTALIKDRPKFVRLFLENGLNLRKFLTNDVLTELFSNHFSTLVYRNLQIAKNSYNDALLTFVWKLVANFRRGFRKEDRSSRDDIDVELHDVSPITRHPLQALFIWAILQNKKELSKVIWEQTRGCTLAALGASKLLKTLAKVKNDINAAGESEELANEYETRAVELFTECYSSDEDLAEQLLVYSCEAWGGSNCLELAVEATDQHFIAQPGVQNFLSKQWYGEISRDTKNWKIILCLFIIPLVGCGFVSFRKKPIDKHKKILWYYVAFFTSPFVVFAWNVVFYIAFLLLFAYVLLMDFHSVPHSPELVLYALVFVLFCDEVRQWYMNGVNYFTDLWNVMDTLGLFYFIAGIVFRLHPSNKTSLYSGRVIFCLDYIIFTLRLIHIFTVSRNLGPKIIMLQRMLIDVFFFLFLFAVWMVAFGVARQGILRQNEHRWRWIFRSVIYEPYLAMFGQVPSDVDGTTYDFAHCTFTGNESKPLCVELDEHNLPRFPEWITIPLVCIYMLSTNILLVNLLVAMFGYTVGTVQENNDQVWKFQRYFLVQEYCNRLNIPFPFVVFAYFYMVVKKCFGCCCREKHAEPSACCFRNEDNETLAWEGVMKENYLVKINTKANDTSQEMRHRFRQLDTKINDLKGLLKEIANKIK

| SMILES | inhibition at 0.2 µM [%] | IC50 [nM] |
| --- | --- | --- |
| C(=CC1CCCCC1)c1nc2cc(-c3ccccc3)ccc2[nH]1 [Compound 2, 2-(2-Cyclohexyl-vinyl)-5-phenyl-1H-benzimidazole] | 96 | 110 |
| Cc1ccccc1-c1ccc2[nH]c(C=CC3CCCCC3)nc2c1 [Compound 3, 2-(2-Cyclohexyl-vinyl)-5-o-tolyl-1H-benzimidazole] | 103 | 7 |
| FC(F)(F)COc1ccccc1-c1ccc2[nH]c(C=CC3CCCCC3)nc2c1 [Compound 4, 2-(2-Cyclohexyl-vinyl)-5-[2-(2,2,2-trifluoro-ethoxy)-phenyl]-1H-benzimidazole] | 103 | 3 |
| Oc1cccc(-c2ccc3[nH]c(C=CC4CCCCC4)nc3c2)c1 [Compound 5, 3-[2-(2-Cyclohexyl-vinyl)-1H-benzimidazol-5-yl]-phenol] | 18 | – |
| OCc1ccccc1-c1ccc2[nH]c(/C=C/C3CCCCC3)nc2c1 [Compound 6] | 103 | 12 |
| CC1(c2ccccc2-c2ccc3[nH]c(C=CC4CCCCC4)nc3c2)OCCO1 [Compound 7, 2-(2-Cyclohexyl-vinyl)-5-[2-(2-methyl-[1,3]dioxolan-2-yl)-phenyl]-1H-benzimidazole] | 103 | 34 |
| CC(=O)c1ccccc1-c1ccc2[nH]c(C=CC3CCCCC3)nc2c1 [Compound 8, 1-{2-[2-(2-Cyclohexyl-vinyl)-1H-benzimidazol-5-yl]-phenyl}-ethanone] | 97 | 41 |
| Fc1ccc(Cl)c(-c2ccc3[nH]c(C=CC4CCCCC4)nc3c2)c1 [Compound 9, 5-(2-Chloro-5-fluoro-phenyl)-2-(2-cyclohexyl-vinyl)-1H-benzimidazole] | 101 | 11 |
| Fc1cccc(Cl)c1-c1ccc2[nH]c(C=CC3CCCCC3)nc2c1 [Compound 10, 5-(2-Chloro-6-fluoro-phenyl)-2-(2-cyclohexyl-vinyl)-1H-benzimidazole] | 101 | 6 |
| COc1cccc(F)c1-c1ccc2[nH]c(C=CC3CCCCC3)nc2c1 [Compound 11, 2-(2-Cyclohexyl-vinyl)-5-(2-fluoro-6-methoxy-phenyl)-1H-benzimidazole] | 102 | 32 |
| COc1cc(F)ccc1-c1ccc2[nH]c(C=CC3CCCCC3)nc2c1 [Compound 12, 2-(2-Cyclohexyl-vinyl)-5-(4-fluoro-2-methoxy-phenyl)-1H-benzimidazole] | 92 | 39 |
| COc1cccc(OC)c1-c1ccc2[nH]c(C=CC3CCCCC3)nc2c1 [Compound 14, 2-(2-Cyclohexyl-vinyl)-5-(2,6-dimethoxy-phenyl)-1H-benzimidazole] | 95 | 2 |
| Fc1cccc(F)c1-c1ccc2[nH]c(C=CC3CCCCC3)nc2c1 [Compound 15, 2-(2-Cyclohexyl-vinyl)-5-(2,6-difluoro-phenyl)-1H-benzimidazole] | 102 | 28 |
| Fc1ccccc1-c1ccc2[nH]c(C=CC3CCCCC3)nc2c1 [Compound 16, 2-(2-Cyclohexyl-vinyl)-5-(2-fluoro-phenyl)-1H-benzimidazole] | 102 | 14 |
| Cc1ccsc1-c1ccc2[nH]c(C=CC3CCCCC3)nc2c1 [Compound 17, 2-(2-Cyclohexyl-vinyl)-5-(3-methyl-thiophen-2-yl)-1H-benzimidazole] | 102 | 17 |
| COc1ccc(Cl)c(-c2ccc3[nH]c(C=CC4CCCCC4)nc3c2)c1 [Compound 18, 5-(2-Chloro-5-methoxy-phenyl)-2-(2-cyclohexyl-vinyl)-1H-benzimidazole] | 101 | 32 |
| Clc1ccc(Cl)c(-c2ccc3[nH]c(C=CC4CCCCC4)nc3c2)c1 [Compound 19, 2-(2-Cyclohexyl-vinyl)-5-(2,5-dichloro-phenyl)-1H-benzimidazole] | 86 | 34 |
